Consider seven molecules from PubChem BioAssay AID1963964 (Molecular Pharmacology Branch, DTP, NCI, 2024).

Each structure is given as a SMILES string. Several values for one entry are separate records, joined by “and”; a condition that tells them apart may be missing. Equal values may be shown once.

The subject of this experiment is 997726-040-R-J2-PDC tumor spheroids, viability. Put plainly: Anticancer human tumor 997726-040-R-J2-PDC patient-derived squamous cell lung carcinoma cell line growth inhibition [PI3K]. To be noted: spheroids with HUVEC and MSC; for viability, T/C: stronger effect = lower value; for IC50: curve of compound. From the text: Combinatorial screen of targeted agents with the PI3K inhibitors inavolisib, alpelisib, duvelisib, and copanlisib in multi-cell type tumor spheroids
A high-throughput screen of multi-cell type tumor spheroids was designed to identify active combinations of targeted small molecules and PI3K pathway inhibitors. Complex spheroids include a stromal component modeled by human endothelial cells (HUVEC) and fibroblasts modeled by human mesenchymal stem cells (MSCs). The concentration ranges selected for each drug and investigational agent were based upon clinically achievable concentrations if the clinical Cmax of the agent was known.
Compounds. The drugs and investigational agents: inavolisib (NSC800729), alpelisib (NSC765974), duvelisib (NSC772469), copanlisib (NSC816437), ipatasertib (NSC767898), afuresertib (NSC778305), talazoparib (NSC767125), sapanisertib (NSC764658), selumetinib (NSC741078), tovorafenib (DAY101, NSC766906), vemurafenib (NSC761431), ravoxertinib (NSC781343), sotorasib (NSC818433), MRTX1133 (NSC 836407), abemaciclib (NSC 768073), palbociclib (NSC758247), venetoclax (NSC 766270), SY5609 (NSC837396), enzalutamide (NSC755605), and darolutamide (NSC825331), were obtained from the National Cancer Institute (NCI) Developmental Therapeutics Program Chemical Repository. The FDA-approved anticancer drug set is available from the NCI Developmental Therapeutics Program. […] The stock solutions were prepared in dimethyl sulfoxide (DMSO, Sigma-Aldrich, St. Louis, MO, cat. D2650) at 800-fold the tested concentration and stored at -70 degrees C prior to their use. All drugs and investigational agents were tested over a range starting from a high concentration at or near the clinical Cmax and decreasing in half-log increments. If the clinical Cmax for an agent had not been determined, the highest concentration tested was 10 microM.
Cell Culture. All cells were maintained in an incubator at 37 degrees C and 5% CO2 with 95% humidity. The PDC lines were cultured according to standard operating procedures established by the NCI PDMR (https://pdmr.cancer.gov/sops/default.htm). All PDCs were thawed and cultured in Matrigel-coated flasks prepared with a working solution of 1X Ham's F-12 nutrient mix, without supplementation (Invitrogen, Waltham, MA, cat. 11765054), 100 U/mL penicillin-streptomycin (Invitrogen, cat. 15140122), and 2.5% Matrigel (Corning Inc., Corning, NY, cat. 354248) for the first three passages. The 354836-022-R-J1-PDC, 475296-252-R-J1-PDC, and 997726-040-R-J2-PDC lines were cultured in 6A media, which includes advanced DMEM/F-12 (Thermo Fisher Scientific, cat. 12634028), 10 mM HEPES (Thermo Fisher Scientific, cat. 15630080), 1X GlutaMAX supplement (Thermo Fisher Scientific, cat. 35050061), 0.1 mg/mL primocin (InvivoGen, San Diego, CA, cat. ant-pm-2), 10% defined fetal bovine serum, heat inactivated (HyClone Laboratories Inc., Logan, UT, cat. SH30070.03HI), 50% L-WRN conditioned media (ATCC, cat. CRL-3276), 1.25 mM N-Acetyl-L-cysteine (Sigma-Aldrich, cat. A9165), 10 mM nicotinamide (Sigma-Aldrich, cat. N0636), 1X B-27 supplement (Thermo Fisher Scientific, cat. 17504044), 1X N-2 supplement (Thermo Fisher Scientific, cat. 17502048), and 10 microM Y-27632 dihydrochloride (Tocris Bioscience, Bristol, United Kingdom, cat. 1254). The 624824-186-R-J2-PDC line was cultured in 6C/Colon 1B media, which includes all 6A media components plus 50 ng/mL human EGF recombinant protein (Thermo Fisher Scientific, cat. PHG0311). […]
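Also: spheroids exposed to compounds for seven days before readout.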

Consider `C#Cc1c(F)ccc2cc(O)cc(-c3ncc4c(N5CC6CCC(C5)N6)nc(OCC56CCCN5CC(F)C6)nc4c3F)c12` (stereo unspecified), for which the IC50 is over 10 µM. Also, the viability, T/C (compound 0.0316 µM) is 105% [middle of 4 runs]. In addition, the viability, T/C (compound 0.1 µM) was 96% [middle of 4 runs]. The viability, T/C (compound 0.316 µM) was 96.5% [middle of 4 runs]. For the setting “compound 1 µM”, the viability, T/C is 96.6% [middle of 4 runs]. The viability, T/C (compound 3.16 µM) was 92.6% [middle of 4 runs]. Further, the viability, T/C (compound 10 µM) was 77.5% [middle of 4 runs].
`C=CC(=O)N1CCN(c2nc(=O)n(-c3c(C)ccnc3C(C)C)c3nc(-c4c(O)cccc4F)c(F)cc23)C(C)C1` (stereo unspecified): the IC50 is over 10 µM. Further, the viability, T/C (compound 0.0316 µM) is 105% [middle of 4 runs]. The viability, T/C (compound 0.1 µM) is 91.2% and 100% (2×) and 96.7%. Further, the viability, T/C (compound 0.316 µM) was 109% [middle of 4 runs]. Also, for the setting “compound 1 µM”, the viability, T/C was 109% [middle of 4 runs]. Moreover, the viability, T/C (compound 3.16 µM) was 126% [middle of 4 runs]. In addition, under “compound 10 µM”, the viability, T/C was 122% [middle of 4 runs].
`CC(Cn1ccc(-c2ccc(C#N)c(Cl)c2)n1)NC(=O)c1cc(C(C)O)[nH]n1` (stereo unspecified): the IC50 is over 10 µM. Moreover, the viability, T/C (compound 0.0316 µM) was 101% [middle of 4 runs]. In addition, for the setting “compound 0.1 µM”, the viability, T/C is 103% [middle of 4 runs]. Besides, the viability, T/C (compound 0.316 µM) was 105% [middle of 4 runs]. Also, the viability, T/C (compound 1 µM) is 100% [middle of 4 runs]. Further, under “compound 3.16 µM”, the viability, T/C was 107% [middle of 4 runs]. The viability, T/C (compound 10 µM) was 96.3% [middle of 4 runs].
For `CC1(C)CCC(Nc2ncc(C(F)(F)F)c(-c3c[nH]c4c(P(C)(C)=O)c(C#N)ccc34)n2)CN1` (stereo unspecified), the viability, T/C (compound 0.0316 µM) was 45.6% [middle of 4 runs]; the viability, T/C (compound 0.1 µM) was 42.6% [middle of 4 runs]; the viability, T/C (compound 0.316 µM) is 48% [middle of 4 runs]; the viability, T/C (compound 1 µM) was 44% [middle of 4 runs]; the viability, T/C (compound 10 µM) was 23.3% [middle of 4 runs].
With `C[C@@H](NC(=O)c1ncnc(N)c1Cl)c1ncc(C(=O)Nc2cc(C(F)(F)F)c(Cl)cn2)s1`, the IC50 is over 10 µM. Moreover, where the note is “compound 0.1 µM”, the viability, T/C was 125% [middle of 4 runs]. Besides, the viability, T/C (compound 0.316 µM) was 117% [middle of 4 runs]. For the setting “compound 1 µM”, the viability, T/C was 110% [middle of 4 runs]. Further, the viability, T/C (compound 3.16 µM) was 105% [middle of 4 runs]. The viability, T/C (compound 10 µM) was 73.3% [middle of 4 runs].
With `Cn1ncc(Cl)c1-c1cc(C(=O)NC(CN)Cc2cccc(F)c2)sc1Cl` (stereo unspecified), the IC50 was 92.5 nM [middle of 4 runs]. Also, for the setting “compound 0.0316 µM”, the viability, T/C is 84.3% [middle of 4 runs]. In addition, the viability, T/C (compound 0.1 µM) was 46.1% [middle of 4 runs]. Further, the viability, T/C (compound 0.316 µM) was 27.1% [middle of 4 runs]. Moreover, the viability, T/C (compound 1 µM) was 12.9% [middle of 4 runs]. In addition, the viability, T/C (compound 3.16 µM) was 9.41% [middle of 4 runs]. Also, the viability, T/C (compound 10 µM) is 12.4% [middle of 4 runs].
As to `Cn1nccc1Nc1nccc(-c2ccn(C(CO)c3ccc(Cl)c(F)c3)c(=O)c2)n1` (stereo unspecified), the IC50 was over 10 µM. The viability, T/C (compound 0.0316 µM) was 93.2% [middle of 4 runs]. Under “compound 0.1 µM”, the viability, T/C was 78.7% [middle of 4 runs]. Also, the viability, T/C (compound 0.316 µM) is 73.9% [middle of 4 runs]. In addition, for the setting “compound 1 µM”, the viability, T/C was 61.8% [middle of 4 runs]. The viability, T/C (compound 3.16 µM) is 61.6% [middle of 4 runs]. Besides, the viability, T/C (compound 10 µM) is 58.1% [middle of 4 runs].

The term viability, T/C denotes the result in the treated group divided by that in the control group, in per cent. A word on the IC50: it is the point on the concentration scale where inhibition reaches its midpoint.
